# Assay results reported in patent publication US20110182992A1, “PEPTIDES AND PEPTIDE MIMETICS TO TREAT PATHOLOGIES ASSOCIATED WITH EYE DISEASE” (priority 2008, published 2011).
# Legend:
# LDL receptor null mice = assay: HDL protective capacity in LDL receptor null mice given peptide in drinking water; assay type: in vivo; details: 0.25 or 0.5 mg per ml of drinking water, 24 or 48 hrs, mouse HDL at 100 μg/ml
# Method: FIG. 3 illustrates the effect of apo J peptide mimetics on HDL protective capacity in LDL receptor null mice. The values are the mean±SD of the number of migrated monocytes in 9 high power fields from each of quadruple assay wells.
# D-4F designated as F, or the apoJ peptide made from D amino acids (D-J336, designated as J) was added to the drinking water of LDL receptor null mice (4 per group) at 0.25 or 0.5 mg per ml of drinking water. After 24- or 48-hrs blood was collected from the mice and their HDL was isolated and tested for its ability to protect against LDL-induced monocyte chemotactic activity. Assay controls included culture wells that received no lipoproteins (no addition), or control human LDL alone (designated as LDL, 200µg cholesterol/ml), or control LDL+ control human HDL (designated as +HDL, 350µg HDL cholesterol). For testing the mouse HDL, the control LDL was added together with mouse HDL (+F HDL or +J HDL) to artery wall cell cultures. The mouse HDL was added at 100 μg cholesterol/ml respectively.
# ApoE null mice [1] = assay: Protection against LDL-induced monocyte chemotactic activity by HDL from apo E null mice given oral peptides; assay type: in vivo, mouse; details: ApoE null mice, peptide in drinking water 24 hrs; murine HDL at 100 μg/ml
# Source text: FIG. 4 illustrates protection against LDL-induced monocyte chemotactic activity by HDL from apo E null mice given oral peptides. The values are the mean±SD of the number of migrated monocytes in 9 high power fields from each of quadruple assay wells. Asterisks indicate significant difference (p<0.05) as compared to No Peptide mHDL.
# After 24 hrs blood was collected, plasma fractionated by FPLC and fractions containing LDL (designated as mLDL for murine LDL) and fractions containing HDL (designated as mHDL) were separately pooled and HDL protective capacity against LDL oxidation as determined by LDL-induced monocyte chemotactic activity was determined. For the assay controls the culture wells received no lipoproteins (no additions), mLDL alone (at 200 μg cholesterol/ml), or mLDL+ standard normal human HDL (designated as Cont. h HDL, at 350 μg HDL cholesterol/ml).
# For testing the murine HDL, mLDL together with murine HDL (+F mHDL or +J mHDL) were added to artery wall cell cultures. […] The murine HDL was used at 100µg cholesterol/ml.
# ApoE null mice [2] = assay: HDL and pre-beta HDL from apoE null mice fed solution-phase synthesized D-4F: inhibition of LDL-induced monocyte chemotaxis; assay type: in vivo, mouse; details: ApoE null mice fed 5 micrograms in chow, bled after twelve hours; product of solution phase synthesis
# Source text: ApoE null mice were fed 5 micrograms of the D-4F synthesized as described above (Frgmnt) or the mice were given the same amount of mouse chow without D-4F (Chow). Twelve hours after the feeding was started, the mice were bled and their plasma was fractionated on FPLC.
# ApoE null mice [3] = assay: HDL Inflammatory Index, D-4F versus Reverse D-4F by stomach tube; assay type: in vivo, mouse; details: apoE null mice, 0, 3, 6, 12 or 25 micrograms by stomach tube, blood 7 hours later
# Method: Female apoE null mice were administered by stomach tube 0, 3, 6, 12, or 25 micrograms of D-4F or Reverse D-4F in 100 microliters of water. Blood was obtained 7 hours later and the plasma was fractionated by FPLC. A standard control human LDL was added to human artery wall cells at a concentration of 100 micrograms of LDL-cholesterol/mL (LDL). The resulting monocyte chemotactic activity was normalized to 1.0. […] The resulting monocyte chemotactic activity was normalized to that of the LDL added without HDL. The resulting value is the HDL Inflammatory Index. The results shown are the Mean±S.D. for the data from three separate experiments.
# ApoE null mice [4] = assay: Trabecular bone mineral density, peptide in drinking water; assay type: in vivo, mouse; details: drinking water for 6 weeks
# Obese Zucker rats = assay: Plasma glucose and lipid hydroperoxides (LOOH) in obese Zucker rats; assay type: in vivo, rat; details: Obese Zucker rats 26 weeks of age, 5.0 mg/kg/day intraperitoneal, 10 days
# Method: Obese Zucker rats 26 weeks of age were bled and then treated with daily intraperitoneal injections of D-4F (5.0 mg/kg/day). After 10 days the rats were bled again plasma glucose and lipid hydroperoxides (LOOH) were determined. *p=0.027; **p=0.0017.
# ApoE null mice [5] = assay: HDL function after D-4F and/or statin in the drinking water; assay type: in vivo, mouse; details: 1 μg/ml in the drinking water for 24 hours
# [6] = mouse, in vivo
# [7] = in vivo; cited from earlier work
structure (smiles),measurement,setting,value
"CC(=O)N[C@H](CC(=O)O)C(=O)N[C@H](Cc1c[nH]c2ccccc12)C(=O)N[C@H](Cc1ccccc1)C(=O)N[C@H](CCCCN)C(=O)N[C@H](C)C(=O)N[C@H](Cc1ccccc1)C(=O)N[C@H](Cc1ccc(O)cc1)C(=O)N[C@H](CC(=O)O)C(=O)N[C@H](CCCCN)C(=O)N[C@@H](C(=O)N[C@H](C)C(=O)N[C@H](CCC(=O)O)C(=O)N[C@H](CCCCN)C(=O)N[C@H](Cc1ccccc1)C(=O)N[C@H](CCCCN)C(=O)N[C@H](CCC(=O)O)C(=O)N[C@H](C)C(=O)N[C@H](Cc1ccccc1)C(N)=O)C(C)C [Peptide D-4F, Ac-D-W-F-K-A-F-Y-D-K-V-A-E-K-F-K-E-A-F-NH2]",activity of mouse HDL in preventing control LDL from inducing artery wall cells to produce monocyte chemotactic activity,LDL receptor null mice,as active as 350 μg/ml of control human HDL
same,activity of murine HDL against LDL-induced monocyte chemotactic activity,ApoE null mice [1],as active as 350µg/ml of normal human HDL
same,biological activity in producing HDL and pre-beta HDL that inhibit LDL-induced monocyte chemotaxis,ApoE null mice [2],very biologically active in producing HDL and pre-beta HDL that inhibit LDL-induced monocyte chemotaxis
same,"biological activities (HDL Inflammatory Index), D-4F versus Reverse D-4F",ApoE null mice [3],not significantly different
same,trabecular bone mineral density,ApoE null mice [4],dramatically increased trabecular bone mineral density
same,"mitigation of symptoms of diabetes (plasma glucose, lipid hydroperoxides)",Obese Zucker rats,effective in mitigating symptoms of diabetes
same,"HDL function, D-4F alone",ApoE null mice [5],did not significantly improve HDL function
same,association with pre-beta HDL and HDL,[6],rapidly associates with pre-beta HDL and HDL
same,time after an oral dose at which essentially non-detectable in the circulation,[6]; po,6 h
same,side effects,[7],no side effects
